Converted amounts (≈) assume the structure as drawn. Each block holds one compound with its values, some of them ahead of it.
SMILES: C=CCOC1=NS(=O)(=O)c2ccccc21
solubility: 672 µM (≈ 150 µg/mL)

SMILES: CCCCOC(=O)C1(O)c2ccccc2-c2ccccc21
logP: 3.7

SMILES: C[N+]1(C)CCCCC1.[Cl-]
logD (pH 7.0): -2.82

SMILES: CCNc1nc(Cl)nc(NCC)n1
solubility (20 °C): 46 µM (≈ 9.28 µg/mL)

SMILES: N#Cc1nn(-c2c(Cl)cc(C(F)(F)F)cc2Cl)c(N)c1S(=O)C(F)(F)F (centres undefined)
logP: 4
solubility (20 °C): 4.35 µM (≈ 1.9 µg/mL)

SMILES: CCSCc1ccccc1OC(=O)NC
logP: 2.04

solubility (pH 7.0): 47.3 µM (≈ 16 µg/mL)
SMILES: C#CCOc1cc(-n2nc3n(c2=O)CCCC3)c(Cl)cc1Cl

solubility (20 °C): 82.9 µM (≈ 20 µg/mL)
SMILES: O=C(O)c1ccccc1C(=O)Nc1ccccc1

SMILES: O=CNC(N1CCN(C(NC=O)C(Cl)(Cl)Cl)CC1)C(Cl)(Cl)Cl (centres undefined)
logP: 2.2

SMILES: CCN(CC)C(=O)C(Cl)=C(C)OP(=O)(OC)OC
logP: 0.79

SMILES: CCCN(CC)CC1COC2(CCC(C(C)(C)C)CC2)O1 (centres undefined)
solubility (pH 7.0, 20 °C): 1580 µM (≈ 470 µg/mL)

SMILES: CNC(=O)Oc1cc(C)cc(C)c1
solubility (20 °C): 2620 µM (≈ 470 µg/mL)

SMILES: CO/C=C(/C(=O)OC)c1ccccc1Oc1cc(Oc2ccccc2C#N)ncn1
logP: 2.5
solubility (20 °C): 14.9 µM (≈ 6 µg/mL)

SMILES: CCCSP(=S)(OCC)Oc1ccc(SC)cc1 (centres undefined)
logP: 5.48

SMILES: CN(C(=O)COc1nc2ccccc2s1)c1ccccc1
logP: 3.23

logP: 4.58
SMILES: CCOC(=O)[C@@H](C)Oc1ccc(Oc2nc3ccc(Cl)cc3o2)cc1

solubility (20 °C): 173 µM (≈ 47 µg/mL)
SMILES: CCOC(=O)Cn1c(=O)sc2cccc(Cl)c21

SMILES: COC(C)(C)CCCC(C)C/C=C/C(C)=C/C(=O)OC(C)C (centres undefined)
solubility: 4.51 µM (≈ 1.4 µg/mL)

SMILES: CN(C)c1nc(=O)n(C2CCCCC2)c(=O)n1C
solubility (25 °C): 131000 µM (≈ 33000 µg/mL)

SMILES: FC(F)C(F)(F)OCC(Cn1cncn1)c1ccc(Cl)cc1Cl (centres undefined)
logP: 3.56

SMILES: CCOc1nc(NC)nc(NC(=O)NS(=O)(=O)c2ccccc2C(=O)OC)n1
logD (pH 5.0): 1.59
solubility (pH 5.0, 25 °C): 4.14 µM (≈ 1.7 µg/mL)

solubility (20 °C): 9.14 µM (≈ 2.7 µg/mL)
SMILES: CC(C)OC(=O)c1cc(C(=O)OC(C)C)cc([N+](=O)[O-])c1

SMILES: COc1cc(OC)nc(Sc2cccc(Cl)c2C(=O)[O-])n1.[Na+]
logD (pH 5.0): 0.6

logP: 4.05
SMILES: CCSC(=O)COc1ccc(Cl)cc1C

logP: 3.83
solubility (pH 6.2, 20 °C): 53.6 µM (≈ 20 µg/mL)
SMILES: CCOC(=O)C1=NN(c2ccc(Cl)cc2Cl)C(C)(C(=O)OCC)C1 (centres undefined)

solubility (25 °C): 87.1 µM (≈ 20 µg/mL)
SMILES: CCNc1nc(Cl)nc(N(CC)CC)n1

SMILES: CC(C)(C)C(O)(CCc1ccc(Cl)cc1)Cn1cncn1 (centres undefined)
logP: 3.7

SMILES: C=C(C)CN(CC)c1c([N+](=O)[O-])cc(C(F)(F)F)cc1[N+](=O)[O-]
solubility (pH 7.0, 25 °C): 0.735 µM (≈ 0.245 µg/mL)

SMILES: CNc1cnn(-c2cccc(C(F)(F)F)c2)c(=O)c1Cl
solubility (25 °C): 111 µM (≈ 33.7 µg/mL)

SMILES: COP(N)(=O)SC (centres undefined)
logP: -0.8

SMILES: Cc1ccc(N(SC(F)(Cl)Cl)S(=O)(=O)N(C)C)cc1
logP: 3.9
solubility (20 °C): 2.59 µM (≈ 0.9 µg/mL)

SMILES: CC1(C)CCC(Cc2ccc(Cl)cc2)C1(O)Cn1cncn1 (centres undefined)
logP: 3.85

logP: 3.01
SMILES: CN(C(O)=NC(C)(C)c1ccccc1)c1ccccc1

solubility (25 °C): 97.8 µM (≈ 30 µg/mL)
SMILES: NC(=O)C1(N2C(=O)c3cccc(Cl)c3C2=O)CCCCC1

SMILES: O=C(Nc1ccccc1)Nc1ccnc(Cl)c1
logP: 3.2

SMILES: CS(=O)(=O)c1ccc(C(=O)C2C(=O)CCCC2=O)c(Cl)c1
solubility (25 °C): 502 µM (≈ 165 µg/mL)

SMILES: CC(C)N(Cc1ccccc1)C(=O)C(C)(C)C
logP: 3
solubility (pH 7.0, 20 °C): 3390 µM (≈ 790 µg/mL)

SMILES: O=C1C2CC=CCC2C(=O)N1SC(Cl)(Cl)Cl (centres undefined)
logP: 2.8

SMILES: CCN(CC)C(=O)n1cnc(S(=O)(=O)c2c(C)cc(C)cc2C)n1
logP: 3.21

SMILES: C#CC(OC(=O)C1C(C=C(C)C)C1(C)C)/C(C)=C/CC (centres undefined)
solubility (25 °C): 0.404 µM (≈ 0.111 µg/mL)

SMILES: CCOC(=O)C(Cl)Cc1cc(-n2nc(C)n(C(F)F)c2=O)c(F)cc1Cl (centres undefined)
logP: 3.36
solubility (25 °C): 53.4 µM (≈ 22 µg/mL)

solubility: 101 µM (≈ 33 µg/mL)
SMILES: CCC(Nc1ncnc(C)c1Cl)c1ccc(OC(F)F)cc1 (centres undefined)

solubility (26 °C): 31.3 µM (≈ 14 µg/mL)
SMILES: O=C(O)c1c(Cl)c(Cl)c(Cl)c(Cl)c1C(O)=Nc1cccc(Cl)c1Cl

SMILES: CSC(=O)c1cccc2nnsc12
logP: 3.1
solubility (25 °C): 36.6 µM (≈ 7.7 µg/mL)

SMILES: OC(c1ccc(Cl)cc1)(c1ccc(Cl)cc1)C(Cl)(Cl)Cl
solubility (25 °C): 2.77 µM (≈ 1.03 µg/mL)

SMILES: CC1(C)C(C=C(Cl)Cl)C1C(=O)OC(C#N)c1ccc(F)c(Oc2ccccc2)c1 (centres undefined)
solubility (20 °C): 0.00691 µM (≈ 0.003 µg/mL)

SMILES: C/C(=N\NC(=O)Nc1cc(F)cc(F)c1)c1ncccc1C(=O)O
solubility: 188 µM (≈ 63 µg/mL)

SMILES: O=C1c2ccccc2C(=O)N1SC(Cl)(Cl)Cl
solubility (25 °C): 2.7 µM (≈ 0.8 µg/mL)

SMILES: CCCSC(=O)N(CCC)CCC
logP: 3.84
solubility (20 °C): 443 µM (≈ 90 µg/mL)

SMILES: CCCCC(O)(Cn1cncn1)c1ccc(Cl)cc1Cl (centres undefined)
logP: 3.9

SMILES: C#CCN1CC(=O)N(COC(=O)[C@@H]2[C@@H](C=C(C)C)C2(C)C)C1=O
logP: 2.9
solubility (25 °C): 294 µM (≈ 93.5 µg/mL)

SMILES: CCNP(=S)(OC)O/C(C)=C/C(=O)OC(C)C (centres undefined)
logP: 3.82

SMILES: C=CCC1=C(C)C(OC(=O)C2C(C=C(C)C)C2(C)C)CC1=O (centres undefined)
solubility (25 °C): 15.2 µM (≈ 4.6 µg/mL)

SMILES: COc1cc(OC)n2nc(S(=O)(=O)Nc3c(Cl)ccc(C)c3Cl)nc2n1
logP: 3.08
solubility (20 °C): 478 µM (≈ 200 µg/mL)

SMILES: CC(C)Oc1cccc(NC(=O)c2ccccc2C(F)(F)F)c1
solubility (20 °C): 24.4 µM (≈ 7.88 µg/mL)

SMILES: CC1CCCCC1NC(=O)Nc1ccccc1 (centres undefined)
logP: 3.8

logP: 4.28
solubility (25 °C): 1.51 µM (≈ 0.5 µg/mL)
SMILES: COC(=O)c1c(Cl)c(Cl)c(C(=O)OC)c(Cl)c1Cl

— the OPERA property sets (Mansouri et al. 2018)
